Legend:
Experiment in all cases: Post-emergence herbicidal action
Type in all cases: in vivo
Amaranthus retroflexus = settings: application rate 20 g/ha, rated visually after about 3 weeks vs untreated controls
Method: (§1) a. Post-Emergence Herbicidal Action and Crop Plant Compatibility Seeds of monocotyledonous and dicotyledonous weeds and crop plants were placed in sandy loam in plastic or wood-fiber pots, covered with soil and cultivated in a greenhouse under controlled growth conditions. 2 to 3 weeks after sowing, the test plants were treated at the one-leaf stage. The compounds of the invention, formulated in the form of wettable powders (WP) or as emulsion concentrates (EC), were then sprayed onto the green parts of the plants as aqueous suspension or emulsion with addition of 0.5% additive at a water application rate of 600 l/ha (converted). After the test plants had been kept in the greenhouse under optimum growth conditions for about 3 weeks, the activity of the preparations was rated visually in comparison to untreated controls. For example, 100% activity=the plants have died, 0% activity=like control plants. Tables A1 to A15 below show the effects of selected compounds of the general formula (I) according to Tables I.1 to I.36 on various harmful plants and at an application rate corresponding to 20 g/ha and less, which were obtained by the experimental procedure mentioned above.

Lolium rigidum = settings: application rate 20 g/ha, rated visually after about 3 weeks vs untreated controls
Method: as §1

Abutilon theophrasti = settings: application rate 20 g/ha, rated visually after about 3 weeks vs untreated controls
Method: as §1

Digitaria sanguinalis = settings: application rate 20 g/ha, rated visually after about 3 weeks vs untreated controls
Method: as §1

Pharbitis purpurea = settings: application rate 20 g/ha, rated visually after about 3 weeks vs untreated controls
Method: as §1

Setaria viridis = settings: application rate 20 g/ha, rated visually after about 3 weeks vs untreated controls
Method: as §1

Avena fatua = settings: application rate 20 g/ha, rated visually after about 3 weeks vs untreated controls
Method: as §1

Veronica persica = settings: application rate 20 g/ha
Method: as §1

Echinochloa crus-galli = settings: application rate 20 g/ha, rated visually after about 3 weeks vs untreated controls
Method: as §1

Matricaria inodora = settings: application rate 20 g/ha, rated visually after about 3 weeks vs untreated controls
Method: as §1

Alopecurus myosuroides = settings: application rate 20 g/ha, rated visually after about 3 weeks vs untreated controls
Method: as §1

Viola tricolor = settings: application rate 20 g/ha
Method: as §1

Polygonum convolvulus = settings: application rate 20 g/ha
Method: as §1

COCCOC(=O)COc1ncccc1Oc1cc(-n2c(=O)cc(C(F)(F)F)n(C)c2=O)c(F)cc1C#N [I.35-1]
100%: Amaranthus retroflexus (efficacy in %) (Amaranthus retroflexus) | Abutilon theophrasti (efficacy in %) (Abutilon theophrasti) | Digitaria sanguinalis (efficacy in %) (Digitaria sanguinalis) | Pharbitis purpurea (efficacy in %) (Pharbitis purpurea) | Setaria viridis (efficacy in %) (Setaria viridis) | Avena fatua (efficacy in %) (Avena fatua) | Veronica persica (efficacy in %) (Veronica persica) | Echinochloa crus-galli (efficacy in %) (Echinochloa crus-galli) | Matricaria inodora (efficacy in %) (Matricaria inodora) | Alopecurus myosuroides (efficacy in %) (Alopecurus myosuroides) | Viola tricolor (efficacy in %) (Viola tricolor) | Polygonum convolvulus (efficacy in %) (Polygonum convolvulus)
80%: Lolium rigidum (efficacy in %) (Lolium rigidum)

COCCOCCOC(=O)COc1ncccc1Oc1cc(-n2c(=O)cc(C(F)(F)F)n(C)c2=O)c(F)cc1Br [I.16-23]
100%: Amaranthus retroflexus (efficacy in %) (Amaranthus retroflexus) | Lolium rigidum (efficacy in %) (Lolium rigidum) | Abutilon theophrasti (efficacy in %) (Abutilon theophrasti) | Digitaria sanguinalis (efficacy in %) (Digitaria sanguinalis) | Pharbitis purpurea (efficacy in %) (Pharbitis purpurea) | Setaria viridis (efficacy in %) (Setaria viridis) | Avena fatua (efficacy in %) (Avena fatua) | Veronica persica (efficacy in %) (Veronica persica) | Echinochloa crus-galli (efficacy in %) (Echinochloa crus-galli) | Matricaria inodora (efficacy in %) (Matricaria inodora) | Alopecurus myosuroides (efficacy in %) (Alopecurus myosuroides) | Viola tricolor (efficacy in %) (Viola tricolor) | Polygonum convolvulus (efficacy in %) (Polygonum convolvulus)

COCCOCCOC(=O)COc1ncc(F)cc1Oc1cc(-n2c(=O)cc(C(F)(F)F)n(C)c2=O)c(F)cc1Cl [I.36-23]
90%: Lolium rigidum (efficacy in %) (Lolium rigidum) | Polygonum convolvulus (efficacy in %) (Polygonum convolvulus)
100%: Amaranthus retroflexus (efficacy in %) (Amaranthus retroflexus) | Abutilon theophrasti (efficacy in %) (Abutilon theophrasti) | Digitaria sanguinalis (efficacy in %) (Digitaria sanguinalis) | Pharbitis purpurea (efficacy in %) (Pharbitis purpurea) | Setaria viridis (efficacy in %) (Setaria viridis) | Veronica persica (efficacy in %) (Veronica persica) | Echinochloa crus-galli (efficacy in %) (Echinochloa crus-galli) | Matricaria inodora (efficacy in %) (Matricaria inodora) | Alopecurus myosuroides (efficacy in %) (Alopecurus myosuroides) | Viola tricolor (efficacy in %) (Viola tricolor)

COCCOCCOC(=O)COc1ncccc1Oc1cc(-n2c(=O)cc(C(F)(F)F)n(C)c2=O)c(F)cc1C#N [I.35-23]
90%: Avena fatua (efficacy in %) (Avena fatua)
100%: Amaranthus retroflexus (efficacy in %) (Amaranthus retroflexus) | Abutilon theophrasti (efficacy in %) (Abutilon theophrasti) | Digitaria sanguinalis (efficacy in %) (Digitaria sanguinalis) | Pharbitis purpurea (efficacy in %) (Pharbitis purpurea) | Setaria viridis (efficacy in %) (Setaria viridis) | Veronica persica (efficacy in %) (Veronica persica) | Echinochloa crus-galli (efficacy in %) (Echinochloa crus-galli) | Matricaria inodora (efficacy in %) (Matricaria inodora) | Alopecurus myosuroides (efficacy in %) (Alopecurus myosuroides) | Viola tricolor (efficacy in %) (Viola tricolor)

Cn1c(C(F)(F)F)cc(=O)n(-c2cc(Oc3cccnc3OCC(=O)OCC3CCCO3)c(Br)cc2F)c1=O (centres unmarked) [I.16-71]
90%: Lolium rigidum (efficacy in %) (Lolium rigidum) | Avena fatua (efficacy in %) (Avena fatua)
100%: Amaranthus retroflexus (efficacy in %) (Amaranthus retroflexus) | Abutilon theophrasti (efficacy in %) (Abutilon theophrasti) | Digitaria sanguinalis (efficacy in %) (Digitaria sanguinalis) | Pharbitis purpurea (efficacy in %) (Pharbitis purpurea) | Setaria viridis (efficacy in %) (Setaria viridis) | Veronica persica (efficacy in %) (Veronica persica) | Echinochloa crus-galli (efficacy in %) (Echinochloa crus-galli) | Matricaria inodora (efficacy in %) (Matricaria inodora) | Alopecurus myosuroides (efficacy in %) (Alopecurus myosuroides) | Viola tricolor (efficacy in %) (Viola tricolor) | Polygonum convolvulus (efficacy in %) (Polygonum convolvulus)

Cn1c(C(F)(F)F)cc(=O)n(-c2cc(Oc3cccnc3OCC(=O)OCC3OCCO3)c(Br)cc2F)c1=O [I.16-424]
90%: Avena fatua (efficacy in %) (Avena fatua)
80%: Lolium rigidum (efficacy in %) (Lolium rigidum)
100%: Amaranthus retroflexus (efficacy in %) (Amaranthus retroflexus) | Abutilon theophrasti (efficacy in %) (Abutilon theophrasti) | Digitaria sanguinalis (efficacy in %) (Digitaria sanguinalis) | Pharbitis purpurea (efficacy in %) (Pharbitis purpurea) | Setaria viridis (efficacy in %) (Setaria viridis) | Veronica persica (efficacy in %) (Veronica persica) | Echinochloa crus-galli (efficacy in %) (Echinochloa crus-galli) | Matricaria inodora (efficacy in %) (Matricaria inodora) | Alopecurus myosuroides (efficacy in %) (Alopecurus myosuroides) | Viola tricolor (efficacy in %) (Viola tricolor) | Polygonum convolvulus (efficacy in %) (Polygonum convolvulus)

CCOC(COC(=O)COc1ncccc1Oc1cc(-n2c(=O)cc(C(F)(F)F)n(C)c2=O)c(F)cc1Cl)OCC [I.15-422]
100%: Amaranthus retroflexus (efficacy in %) (Amaranthus retroflexus) | Lolium rigidum (efficacy in %) (Lolium rigidum) | Abutilon theophrasti (efficacy in %) (Abutilon theophrasti) | Digitaria sanguinalis (efficacy in %) (Digitaria sanguinalis) | Pharbitis purpurea (efficacy in %) (Pharbitis purpurea) | Setaria viridis (efficacy in %) (Setaria viridis) | Veronica persica (efficacy in %) (Veronica persica) | Echinochloa crus-galli (efficacy in %) (Echinochloa crus-galli) | Matricaria inodora (efficacy in %) (Matricaria inodora) | Alopecurus myosuroides (efficacy in %) (Alopecurus myosuroides) | Viola tricolor (efficacy in %) (Viola tricolor) | Polygonum convolvulus (efficacy in %) (Polygonum convolvulus)
80%: Avena fatua (efficacy in %) (Avena fatua)

COCCOC(=O)COc1ncc(F)cc1Oc1cc(-n2c(=O)cc(C(F)(F)F)n(C)c2=O)c(F)cc1Cl [I.36-1]
100%: Amaranthus retroflexus (efficacy in %) (Amaranthus retroflexus) | Abutilon theophrasti (efficacy in %) (Abutilon theophrasti) | Digitaria sanguinalis (efficacy in %) (Digitaria sanguinalis) | Pharbitis purpurea (efficacy in %) (Pharbitis purpurea) | Setaria viridis (efficacy in %) (Setaria viridis) | Avena fatua (efficacy in %) (Avena fatua) | Veronica persica (efficacy in %) (Veronica persica) | Echinochloa crus-galli (efficacy in %) (Echinochloa crus-galli) | Matricaria inodora (efficacy in %) (Matricaria inodora) | Alopecurus myosuroides (efficacy in %) (Alopecurus myosuroides) | Viola tricolor (efficacy in %) (Viola tricolor) | Polygonum convolvulus (efficacy in %) (Polygonum convolvulus)
90%: Lolium rigidum (efficacy in %) (Lolium rigidum)

Cc1nn(C)cc1COC(=O)COc1ncccc1Oc1cc(-n2c(=O)cc(C(F)(F)F)n(C)c2=O)c(F)cc1Cl [I.15-366]
90%: Lolium rigidum (efficacy in %) (Lolium rigidum) | Avena fatua (efficacy in %) (Avena fatua)
100%: Amaranthus retroflexus (efficacy in %) (Amaranthus retroflexus) | Abutilon theophrasti (efficacy in %) (Abutilon theophrasti) | Digitaria sanguinalis (efficacy in %) (Digitaria sanguinalis) | Pharbitis purpurea (efficacy in %) (Pharbitis purpurea) | Setaria viridis (efficacy in %) (Setaria viridis) | Veronica persica (efficacy in %) (Veronica persica) | Echinochloa crus-galli (efficacy in %) (Echinochloa crus-galli) | Matricaria inodora (efficacy in %) (Matricaria inodora) | Alopecurus myosuroides (efficacy in %) (Alopecurus myosuroides) | Viola tricolor (efficacy in %) (Viola tricolor)

CCn1cc(COC(=O)COc2ncccc2Oc2cc(-n3c(=O)cc(C(F)(F)F)n(C)c3=O)c(F)cc2Cl)c(C)n1 [I.15-368]
100%: Amaranthus retroflexus (efficacy in %) (Amaranthus retroflexus) | Abutilon theophrasti (efficacy in %) (Abutilon theophrasti) | Digitaria sanguinalis (efficacy in %) (Digitaria sanguinalis) | Pharbitis purpurea (efficacy in %) (Pharbitis purpurea) | Setaria viridis (efficacy in %) (Setaria viridis) | Avena fatua (efficacy in %) (Avena fatua) | Veronica persica (efficacy in %) (Veronica persica) | Echinochloa crus-galli (efficacy in %) (Echinochloa crus-galli) | Matricaria inodora (efficacy in %) (Matricaria inodora) | Alopecurus myosuroides (efficacy in %) (Alopecurus myosuroides) | Viola tricolor (efficacy in %) (Viola tricolor)
90%: Lolium rigidum (efficacy in %) (Lolium rigidum)

Cc1c(COC(=O)COc2ncccc2Oc2cc(-n3c(=O)cc(C(F)(F)F)n(C)c3=O)c(F)cc2Cl)cnn1C [I.15-367]
80%: Lolium rigidum (efficacy in %) (Lolium rigidum)
90%: Avena fatua (efficacy in %) (Avena fatua)
100%: Amaranthus retroflexus (efficacy in %) (Amaranthus retroflexus) | Abutilon theophrasti (efficacy in %) (Abutilon theophrasti) | Digitaria sanguinalis (efficacy in %) (Digitaria sanguinalis) | Pharbitis purpurea (efficacy in %) (Pharbitis purpurea) | Setaria viridis (efficacy in %) (Setaria viridis) | Veronica persica (efficacy in %) (Veronica persica) | Echinochloa crus-galli (efficacy in %) (Echinochloa crus-galli) | Matricaria inodora (efficacy in %) (Matricaria inodora) | Alopecurus myosuroides (efficacy in %) (Alopecurus myosuroides) | Viola tricolor (efficacy in %) (Viola tricolor)

From patent US20220289708A1, “SUBSTITUTED N-PHENYL URACILS, SALTS THEREOF AND THEIR USE AS HERBICIDAL AGENTS” (Bayer Aktiengesellschaft, priority 2019, published 2022)
